Measurements published in US20260234150A1, “COMPOUND FOR INHIBITING NLRP3, PREPARATION METHOD, AND USE” (DOVETREE MEDICINES UNUS, INC., priority 2023, published 2026).

Assays:
Assay type in all cases: in vitro ADME
CYP2D6 = target: T1, CYP2D6 (Homo sapiens, UniProt P10635); assay: CYP450 enzyme inhibition in human liver microsomes, CYP2D6; conditions: substrate Dextromethorphan, read-out: Inhibitory activity IC50 (μM) CYP2D6
T1 construct: 0.05 mg/mL liver microsome (BioIVT, IHG) phosphate buffer solution; tissue BioIVT IHG; host or cells: human liver microsomes
T1 sequence (P10635 whole entry): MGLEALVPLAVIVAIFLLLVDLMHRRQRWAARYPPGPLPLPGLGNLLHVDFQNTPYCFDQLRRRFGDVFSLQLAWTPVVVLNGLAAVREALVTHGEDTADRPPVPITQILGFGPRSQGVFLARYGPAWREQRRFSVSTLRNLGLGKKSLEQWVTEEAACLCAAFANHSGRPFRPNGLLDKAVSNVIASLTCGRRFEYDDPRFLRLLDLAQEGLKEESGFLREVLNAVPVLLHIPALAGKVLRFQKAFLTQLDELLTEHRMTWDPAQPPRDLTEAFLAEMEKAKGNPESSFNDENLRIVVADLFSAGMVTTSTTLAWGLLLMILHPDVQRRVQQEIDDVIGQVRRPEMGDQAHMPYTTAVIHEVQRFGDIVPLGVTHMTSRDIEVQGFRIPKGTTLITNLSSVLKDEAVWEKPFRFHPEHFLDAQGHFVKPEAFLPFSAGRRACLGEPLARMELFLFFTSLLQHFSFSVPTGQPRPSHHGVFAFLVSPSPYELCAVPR
Method: (§1) This experiment incubates the compound, liver microsomes and different CYP subtype enzyme substrates in a 37° C. water bath to measure the amount of substrate metabolites produced and evaluate the inhibitory effect of the compound of the present disclosure on CYP enzymes based on the IC50 value.
(§2) i. The compound was diluted to 0, 0.02 mM, 0.06 mM, 0.2 mM, 0.6 mM, 2 mM and 6 mM concentrations with DMSO (Aladdin, catalog number: D103273-500 ml).
(§3) ii. The enzyme substrate solutions of each CYP subtype were prepared by phosphate buffer (sigma: V900050-500G).
(§4) iii. Sample incubation. […] After centrifugation at 4000 rpm and 4° C. for 40 min, the supernatant was diluted with pure water according to the response of the substrate metabolites and then detected by UPLC-MS/MS (Sciex, Q-Trap 4500). […]
(§5) The inhibitory effect of the compound on each P450 enzyme in human liver microsomes was calculated as the percentage of reduced metabolite formation compared with the non-inhibitory control (i.e., blank DMSO). The IC50 value for each P450 enzyme in human liver microsomes was calculated using the logarithm of the remaining activity and the inhibitor concentration using Graphpad Prism software. […]

CYP1A2 = target: T2, CYP1A2 (Homo sapiens, UniProt P05177); assay: CYP450 enzyme inhibition in human liver microsomes, CYP1A2; conditions: substrate Phenacetin, read-out: Inhibitory activity IC50 (μM) CYP1A2
T2 construct: 0.05 mg/mL liver microsome (BioIVT, IHG) phosphate buffer solution; tissue BioIVT IHG; host or cells: human liver microsomes
T2 sequence (P05177 1-516): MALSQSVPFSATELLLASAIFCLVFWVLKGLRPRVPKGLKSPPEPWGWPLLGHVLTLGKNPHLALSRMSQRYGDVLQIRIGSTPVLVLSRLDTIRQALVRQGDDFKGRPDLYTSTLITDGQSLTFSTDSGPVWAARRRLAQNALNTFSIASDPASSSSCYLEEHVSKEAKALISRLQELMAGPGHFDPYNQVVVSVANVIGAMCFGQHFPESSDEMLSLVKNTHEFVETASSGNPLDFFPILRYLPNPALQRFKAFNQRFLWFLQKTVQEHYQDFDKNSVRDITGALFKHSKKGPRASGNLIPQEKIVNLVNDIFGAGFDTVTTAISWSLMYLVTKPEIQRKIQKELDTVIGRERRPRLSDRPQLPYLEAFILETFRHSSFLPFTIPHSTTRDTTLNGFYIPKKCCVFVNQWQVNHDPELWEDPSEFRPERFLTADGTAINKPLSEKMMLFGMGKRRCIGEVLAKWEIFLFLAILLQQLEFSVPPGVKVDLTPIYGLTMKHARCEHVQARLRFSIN
Method: as §1, §2, §3, §4, §5

CYP2C9 = target: T3, CYP2C9 (Homo sapiens, UniProt P11712); assay: CYP450 enzyme inhibition in human liver microsomes, CYP2C9; conditions: substrate Diclofenac Sodium, read-out: Inhibitory activity IC50 (μM) CYP2C9
T3 construct: 0.05 mg/mL liver microsome (BioIVT, IHG) phosphate buffer solution; tissue BioIVT IHG; host or cells: human liver microsomes
T3 sequence (P11712 whole entry): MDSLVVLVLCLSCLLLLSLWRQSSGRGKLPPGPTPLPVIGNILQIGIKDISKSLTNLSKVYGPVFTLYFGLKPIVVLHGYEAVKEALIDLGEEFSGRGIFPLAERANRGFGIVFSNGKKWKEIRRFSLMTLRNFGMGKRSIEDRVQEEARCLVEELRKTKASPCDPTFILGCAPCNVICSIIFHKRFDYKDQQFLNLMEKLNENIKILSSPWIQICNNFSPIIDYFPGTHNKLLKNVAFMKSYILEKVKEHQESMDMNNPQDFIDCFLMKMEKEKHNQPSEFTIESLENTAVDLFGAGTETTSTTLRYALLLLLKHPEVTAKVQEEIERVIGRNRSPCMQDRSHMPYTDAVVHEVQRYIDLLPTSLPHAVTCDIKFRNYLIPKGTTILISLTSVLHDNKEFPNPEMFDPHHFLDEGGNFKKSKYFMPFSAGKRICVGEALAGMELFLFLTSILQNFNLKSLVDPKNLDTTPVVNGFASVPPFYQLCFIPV
Method: as §1, §2, §3, §4, §5

[1] = Liver microsome metabolic stability, mouse; conditions: mouse liver microsomes, 45 min incubation
Method: Purpose: This experiment investigates the metabolic stability of the compound in liver microsomes of different species such as humans, mice and rats, and the residual content of the test compound after incubation with liver microsomes of different species such as humans, mice and rats.
Preparation of 500 μM solution of target compound and positive control: 5 μL of each 10 mM stock solution was taken, added to 95 μL acetonitrile, and mixed for 30 s;
Preparation of 6 mM NADPH solution: 100 mM Stock aliquot liquid was diluted with Mg-Mg —K-Buffer.
2.1.1 Liver microsome solution: 18.75 μL of 20 mg/mL HLM, RLM, MLM, DLM, MOLM (final concentration: 0.5 mg/ml) were taken and placed them in each well of a 96-well plate;
2.1.2 1.5 μL of 500 μM solution of each compound was added respectively;
2.1.3 479.8 μL of phosphate buffer was taken, then added to each compound well, and mixed at 1000 rpm in an oscillating mixer for 10 s.
30 μL of the above samples were taken and aliquoted to a new 96-well plates respectively (including NADPH group, n=2, and no NADPH group at 0 and 45 min, n=1), marked as 0, 5, 15, 30 and 45 min; […]
The slope was calculated based on the LN value of the compound concentration percentage and time as the coordinate axis, and the residual content of the compound after incubation with liver microsomes was calculated based on the slope and formula. […]

CC(=O)N1CCOC[C@H]1CNc1nc2nc(-c3c(C)cc(C(F)(F)F)cc3O)ccc2o1 [Compound 111]
IC50 (CYP2D6): > 30 µM | IC50 (CYP1A2): > 30 µM | IC50 (CYP2C9): > 30 µM | LMS (m)(% rem, 45 min) [1]: 91.34 % rem
